# Columns and labels:
# [1] = molecular target: T1, IRAK3 (Homo sapiens, UniProt Q9Y616); experiment: IRAK3 biochemical binding assay (LanthaScreen Eu Kinase Binding, TR-FRET)
# T1 construct: IRAK Endogenous HTRF Degradation Assay; endogenous in cells
# T1 sequence (Q9Y616 1-596): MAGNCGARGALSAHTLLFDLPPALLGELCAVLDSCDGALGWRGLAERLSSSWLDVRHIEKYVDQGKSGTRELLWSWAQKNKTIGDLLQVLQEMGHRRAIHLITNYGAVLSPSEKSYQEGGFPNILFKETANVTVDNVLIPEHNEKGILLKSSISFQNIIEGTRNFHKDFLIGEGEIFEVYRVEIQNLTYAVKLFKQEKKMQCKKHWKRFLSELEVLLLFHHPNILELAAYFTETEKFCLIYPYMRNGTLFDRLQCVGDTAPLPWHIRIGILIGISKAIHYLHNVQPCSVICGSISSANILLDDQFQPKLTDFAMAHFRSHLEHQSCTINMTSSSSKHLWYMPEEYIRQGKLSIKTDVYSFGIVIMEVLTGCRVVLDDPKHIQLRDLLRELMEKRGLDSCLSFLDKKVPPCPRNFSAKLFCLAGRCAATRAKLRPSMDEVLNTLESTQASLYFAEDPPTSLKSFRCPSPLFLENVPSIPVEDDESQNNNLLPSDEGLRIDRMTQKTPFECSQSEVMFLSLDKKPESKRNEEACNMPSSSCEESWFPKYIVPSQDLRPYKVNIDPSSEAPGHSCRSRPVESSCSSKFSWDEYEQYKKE
# Procedure: Example B3. IRAK3 Biochemical Binding Assay
# The LanthaScreen® Eu Kinase Binding assay was performed as described by the vendor (ThermoFisher Scientific Waltham, MA). Briefly, 100× solutions of compound were prepared in DMSO via serial dilution of the 10 mM stock solution in a 384-well reagent plate using 3-fold intervals to achieve final concentrations. 1 μL of the compound dilution series were added to the corresponding wells of a 384-well reagent plate containing 32.3 μL of 1× buffer (50 mM HEPES pH 7.4, […], 1 mM EGTA, 0.01% Brij-35). 5 μL of the buffer diluted compounds were transferred to the corresponding wells of a 384-well assay plate. 5 μL of 3× tracer was transferred to each well of the assay plate for a final tracer concentration of 10 nM. Finally, 5 μL of the 3×Eu-Anti-GST and IRAK3 mix was transferred to each well for a final concentration of 2 nM and 10 nM respectively. Reactions were allowed to incubate for 1 hour at room temperature. TR-FRET signal of the interaction (λex340/λem 665/λem 615) was read at room temperature with a delay time of 100 ρs and an integration time of 200 ρs using an Envision plate reader. Background corrected emission signal ratios at each compound concentration were used to calculate percentage of inhibition (% Inhibition). Plots of % Inhibition versus inhibitor concentrations were fit according to a dose-response equation (Eq. 1) to generate IC50 and Hill slope values using Dotmatics software (Dotmatics, Bishops Stortford, Hertfordshire, England).
# Using these assays, IC50, Dmax, EC50, and DC50 values of the following compounds were determined. Dmax is defined as the maximum percent degradation achieved and DC50 is the concentration at which 50% degradation is achieved.
# [2] = molecular target: T2, IRAK3-ePL (Homo sapiens, UniProt Q9Y616); experiment: IRAK3-ePL overexpressing degradation assay (InCELL Hunter luminescence, dose response); type: cell-based; settings: for IRAK3 ePL degradation Ymin: lowest percentage of target protein remaining following compound treatment; for DC50: read-out: IRAK3 ePL degradation EC50
# T2 construct: expressed in transfected cells; host or cells: 293T CRBN OE/GSPT1 G575N KI cells, lentiviral transduction, puromycin selected
# Procedure: Example B1. IRAK3-ePL Overexpressing Degradation Assay
# Stable cell lines were generated by the following protocol. 3×10^5 Lenti-X 293T cells (Clonetech) were plated in 0.8 mL of media in a 12-well plate and incubated overnight at 37° C./5% CO2. Packaging plasmid (0.4 μg, pMD), envelope plasmid (0.4 μg, pSP), and lentiviral transfer IRAK3-ePL plasmid (0.8 μg, TRAK3 sequence NM_007199.3) were mixed in 0.1 mL of Opti-MEM and incubated for 5 min. Simultaneously, 2.4 μL of Lipofectamine 2000 (Invitrogen) was added to 0.1 mL of Opti-MEM (Gibco) and incubated for 5 min. The plasmid DNA and lipofectamine were combined and the mixture was allowed to incubate for 20 min.DNA:Lipofectamine Opti-MEM mixtures were then added to previously plated cells dropwise and the cells were incubated for ~16 h at 37° C./5% CO2. Following incubation, the media was removed and 1.2 mL of fresh media was added per well. Lenti-X 293T cells were incubated for ~30 h at 37° C./5% CO2. […] Following incubation, media was removed from the Lenti-X 293T wells and passed through a […] filter. Part of the viral supernatant was used to transduce cells and the rest was stored at −80° C. Viruses were then added individually (0.5 mL virus) to each well of the 293T^CRBN OE/GSPT1 G575N KI cells, followed by addition of polybrene (10 mg/mL Millipore) to each well at a final concentration of 5.0 μg/mL. Cells were incubated for ~24 h at 37° C./5% CO2. After aspirating media off plates, cells were washed with DPBS, trypsinized and plated in a 10 cm dish in 15 mL of media and […] puromycin. Following incubation of cells for ~72 h at 37° C./5% CO2, media was aspirated off plates, and cells were washed with DPBS and trypsinized. The cells were plated in a 15 cm dish in 40 mL of media with 1.0 μg/mL Puromycin (Gibco) and incubated for ~72 h at 37° C./5% CO2. Following incubation, media was removed and cells were washed with DPBS and trypsinized. The majority of cells were resuspended in Invitrogen freezing media and stored away (~6-8×10^6 cells/vial).
# IRAK3-ePL cellular dose response curve degradation assays were performed by the following protocol. Compounds to be tested were dispensed into a white 384-well tissue-culture treated plate using an acoustic liquid handler. Dilutions were prepared based on a 25 μL assay volume in duplicate 10 point 3-fold serial dilutions starting with a 10 μM dose. Negative control wells were included, which only contain 0.2% DMSO to calculate 100% signal. Positive control wells containing 30 μM Ataluren (luciferase inhibitor) were included to calculate the background signal level. All wells were backfilled to a final DMSO concentration of 0.2% to ensure DMSO uniformity across wells. IRAK3-ePL expressing cells (IRAK3-ePL Lenti-X 293T^CRBN/GSPT1 G575N) were washed, trypsinized, counted, and resuspended in fresh DMEM (Gibco) to give a cell concentration of 200,000 cells/mL. 25 μL of cells (5,000 cells/well) were dispensed into the wells of the 384-well plate prespotted with compounds in the previous step and incubated overnight at 37° C./5% CO2. Following incubation, the 384-well plate was taken out of the incubator and left at room temperature for 30 min. InCELL hunter reagent was prepared according to manufacturer's instructions (EA reagent, lysis buffer, and substrate reagent in a 1:1:4 ratio, Cat #96-0002, DiscoverX), which was added to the 384-well plate 25 μL per well. Following the incubation of the plate for 1 h at room temperature, the luminescence signal was read using a ViewLux plate reader. Data was processed and analyzed in ActivityBase software. In short, the average luminescence values of the positive control wells were subtracted from the rest of the wells for background correction, and all luminescence values were normalized to the DMSO control wells. The average value of the DMSO control wells was set to equal 100% of the relative IRAK3-ePL protein levels. […]
SMILES,IC50 [1],IRAK3 ePL degradation Ymin [2],DC50 [2]
"Cc1cc(-c2cnc(Nc3cnn([C@H]4CCCN(CCN5CCN(c6ccc(C7CCC(=O)NC7=O)cc6)CC5)CC4)c3)c3nccn23)c(F)cc1F (single isomer, unassigned) [Compound 111]",0.05 nM,,
"Cc1cc(-c2cnc(Nc3cnn([C@@H]4CCCN(CCN5CCN(c6ccc(C7CCC(=O)NC7=O)cc6)CC5)CC4)c3)c3nccn23)c(F)cc1F (single isomer, unassigned) [Compound 112]",0.48 nM,,
"Cc1cc(-c2cnc(Nc3cnn(C4CCN(CCN5CCN(c6ccc(C7CCC(=O)NC7=O)cc6Cl)CC5)CC4)c3)c3nccn23)c(F)cc1F (centres unmarked) [Compound 43, 3-(3-chloro-4-(4-(2-(4-(4-((5-(2,4-difluoro-5-methylphenyl)imdazo [1,2-a]pyrazin-8-yl)amino)-1H-pyrazol-1-yl)piperidin-1-yl)ethyl)piperazin-1-yl)phenyl) piperidine-2,6-dione]",,24%,2.8 nM
"O=C1CCC(c2ccc(N3CCN(CCN4CCC(n5cc(Nc6ncc(C7CC7)n7ccnc67)cn5)CC4)CC3)cc2)C(=O)N1 (centres unmarked) [Compound 46, 3-(4-(4-(2-(4-(4-((5-cyclopropylimidazo[1,2-a]pyrazin-8-yl)amino)-1H-pyrazol-1-yl)piperidin-1-yl)ethyl)piperazin-1-yl)phenyl) piperidine-2,6-dione]",,24%,0.51 nM
"O=C1CCC(c2ccc(N3CCN(CC[C@H]4CC[C@H](n5cc(Nc6ncc(C7CC7)n7ccnc67)cn5)CC4)CC3)cc2)C(=O)N1 (stereo partly drawn) [Compound 47, 3-(4-(4-(2-((trans)-4-(4-((5-cyclopropylimidazo[1,2-a]pyrazin-8-yl)amino)-1H-pyrazol-1-yl)cyclohexyl)ethyl)piperazin-1-yl)phenyl) piperidine-2,6-dione]",,23%,0.61 nM
"CN1CCOc2ccc(-c3cnc(Nc4cnn(C5CCN(CCN6CCN(c7ccc(C8CCC(=O)NC8=O)cc7)CC6)CC5)c4)c4nccn34)cc21 (centres unmarked) [Compound 48, 3-(4-(4-(2-(4-(4-((5-(4-methyl-3,4-dihydro-2H-benzo[b][1,4]oxazin-6-yl)imidazo[1,2-a]pyrazin-8-yl)amino)-1H-pyrazol-1-yl)piperidin-1-yl)ethyl)piperazin-1-yl)phenyl) piperidine-2,6-dione]",,24%,0.77 nM
"Cc1cc(-c2cnc(Nc3cnn(C4CCN(CCN5CCN(c6ccc(C7CCC(=O)NC7=O)cc6F)CC5)CC4)c3)c3nccn23)c(F)cc1F (centres unmarked) [Compound 49, 3-(4-(4-(2-(4-(4-((5-(2,4-difluoro-5-methylphenyl)imdazo [1,2-a]pyrazin-8-yl)amino)-1H-pyrazol-1-yl)piperidin-1-yl)ethyl)piperazin-1-yl)-3-fluorophenyl)piper idine-2,6-dione]",,24%,2.4 nM
"Cc1cc(-c2cnc(Nc3cnn([C@H]4C[C@H](CCN5CCN(c6ccc(C7CCC(=O)NC7=O)cc6)CC5)C4)c3)c3nccn23)c(F)cc1F (stereo partly drawn) [Compound 66, 3-(4-(4-(2-((trans)-3-(4-((5-(2,4-difluoro-5-methylphenyl)imidazo[1,2-a]pyrazin-8-yl)amino)-1H-pyrazol-1-yl)cyclobutyl)ethyl)piperazin-1-yl)phenyl) piperidine-2,6-dione]",,32%,9.6 nM
"Cc1cc(-c2cnc(Nc3cnn([C@H]4CC[C@H](CN5CCN(c6ccc(C7CCC(=O)NC7=O)cc6)CC5)CC4)c3)c3nccn23)c(F)cc1F (stereo partly drawn) [Compound 67, 3-(4-(4-(((trans)-4-(4-((5-(2,4-difluoro-5-methylphenyl)imidazo[1,2-a]pyrazin-8-yl)amino)-1H-pyrazol-1-yl)cyclohexyl)methyl)piperazin-1-yl)phenyl) piperidine-2,6-dione]",,38%,5.5 nM
"O=C1CCC(c2ccc(N3CCN(CCN4CCC(n5cc(Nc6ncc(C7=CCCC7)n7ccnc67)cn5)CC4)CC3)cc2)C(=O)N1 (centres unmarked) [Compound 68, 3-(4-(4-(2-(4-(4-((5-(cyclopent-1-en-1-yl)imidazo[1,2-a]pyrazin-8-yl)amino)-1H-pyrazol-1-yl)piperidin-1-yl)ethyl)piperazin-1-yl)phenyl) piperidine-2,6-dione]",,24%,0.54 nM
"Cc1nc(Nc2cnn(C3CCN(CCN4CCN(c5ccc(C6CCC(=O)NC6=O)cc5)CC4)CC3)c2)c2nccn2c1C (centres unmarked) [Compound 84, 3-(4-(4-(2-(4-(4-((5,6-dimethylimidazo[1,2-a]pyrazin-8-yl)amino)-1H-pyrazol-1-yl)piperidin-1-yl)ethyl)piperazin-1-yl)phenyl)piperidine-2,6-dione]",24 nM,,
"O=C1CCC(c2ccc(N3CCN(CCN4CCC(n5cc(Nc6ncc(-c7ccc8c(c7)CC8)n7ccnc67)cn5)CC4)CC3)cc2)C(=O)N1 (centres unmarked) [Compound 85, 3-(4-(4-(2-(4-(4-((5-(bicyclo[4.2.0]octa-1(6),2,4-trien-3-yl)imidazo[1,2-a]pyrazin-8-yl)amino)-1H-pyrazol-1-yl)piperidin-1-yl)ethyl)piperazin-1-yl)phenyl) piperidine-2,6-dione]",25 nM,,

# From US20260216347A1, “Substituted Imidazo-Based Compounds as Ligand Directed Degraders of IRAK3” (Celgene Corporation, priority 2022, published 2026)
